# Experimental data: US7371751B2, “Thiazole derivatives” (Hoffmann-La Roche Inc., priority 2003, dated 2008)
# Target: T1, human cannabis CB1 receptor (Homo sapiens, UniProt P21554)
# T1 construct: expressed in transfected cells; host or cells: human embryonic kidney (HEK) cells, Semliki Forest Virus system, membrane preparation
# Assay: Affinity for cannabinoid CB1 receptors, [3H]-CP-55,940 radioligand binding on HEK cell membrane preparations
# Conditions: not given
# Method: The affinity of the compounds of the invention for cannabinoid CB1 receptors was determined using membrane preparations of human embryonic kidney (HEK) cells in which the human cannabis CB1 receptor is transiently transfected using the Semliki Forest Virus system in conjunction with [3H]-CP-55,940 as radioligand. After incubation of a freshly prepared cell membrane preparation with the [3H]-ligand, with or without addition of compounds of the invention, separation of bound and free ligand was performed by filtration over glassfiber filters. Radioactivity on the filter was measured by liquid scintillation counting.
# T1 sequence (P21554 whole entry): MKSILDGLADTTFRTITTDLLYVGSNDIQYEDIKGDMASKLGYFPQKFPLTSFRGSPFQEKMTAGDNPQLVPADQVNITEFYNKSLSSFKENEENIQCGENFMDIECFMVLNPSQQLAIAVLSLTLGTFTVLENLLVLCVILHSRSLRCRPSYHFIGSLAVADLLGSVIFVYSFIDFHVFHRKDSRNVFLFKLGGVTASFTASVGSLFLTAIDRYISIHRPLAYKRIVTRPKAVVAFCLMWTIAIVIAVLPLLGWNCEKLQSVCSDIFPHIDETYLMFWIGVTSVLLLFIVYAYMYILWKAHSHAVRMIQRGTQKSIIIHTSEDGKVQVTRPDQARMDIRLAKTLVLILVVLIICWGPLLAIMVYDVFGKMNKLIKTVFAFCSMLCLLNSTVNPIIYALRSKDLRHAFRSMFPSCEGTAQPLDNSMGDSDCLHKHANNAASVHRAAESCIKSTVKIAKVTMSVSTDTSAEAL
row,Compound,IC50 [nM]
1,"O=C(c1csc(N(C(=O)c2ccc(Cl)cc2Cl)c2ccc(Cl)cc2)n1)N1CCCC1 [Example 6, 2,4-Dichloro-N-(4-chloro-phenyl)-N-[4-(pyrrolidine-1-carbonyl)-thiazol-2-yl]-benzamide]",610
2,"COc1ccc(N(C(=O)c2ccc(Cl)cc2Cl)c2nc(C(=O)NCc3ccccc3)cs2)cc1OC [Example 11, 2-[(2,4-Dichloro-benzoyl)-(3,4-dimethoxy-phenyl)-amino]-thiazole-4-carboxylic acidbenzylamide]",810
3,"COCCN(CCOC)C(=O)c1csc(N(C(=O)c2ccc(Cl)cc2Cl)c2ccc(Cl)cc2)n1 [Example 33, 2-[(4-Chloro-phenyl)-(2,4-dichloro-benzoyl)-amino]-thiazole-4-carboxylic acid bis-(2-methoxy-ethyl)-amide]",550
4,"CC(C)(C)N(CCO)C(=O)c1csc(N(C(=O)c2ccc(Cl)cc2Cl)c2ccc(Cl)cc2)n1 [Example 95, 2-[(4-Chloro-phenyl)-(2,4-dichloro-benzoyl)-amino]-thiazole-4-carboxylic acid tert-butyl-(2-hydroxy-ethyl)-amide]",260
5,"O=C(c1csc(N(C(=O)c2ccc(Cl)cc2Cl)c2ccc(OC(F)(F)F)cc2)n1)N1CCCC1 [Example 147, 2,4-Dichloro-N-[4-(pyrrolidine-1-carbonyl)thiazole-2-yl]-N-(4-trifluoromethoxy-phenyl)-benzamide]",490

# Same assay, conditions: affinity for the CB1 receptor; [3H]-CP-55,940 as radioligand; HEK cell membranes; read-out: IC50
row,IC50 [nM],Compound
1,850,"COc1ccc(N(C(=O)c2ccccc2Cl)c2nc(C(=O)NC3CCCCC3)cs2)cc1OC [Example 18, 2-[(2-Chloro-benzoyl)-(3,4-dimethoxy-phenyl)-amino]-thiazole-4-carboxylic acidcyclohexylamide]"
2,810,O=C(NCCc1cnc[nH]1)c1csc(N(C(=O)c2ccc(Cl)cc2Cl)c2ccc(Cl)cc2)n1 [Example 43]
3,430,"O=C(c1cnc(N(C(=O)c2ccc(Cl)cc2Cl)c2ccc(Cl)cc2)s1)N1CCSCC1 [Example 138, 2,4-Dichloro-N-(4-chlor-o-phenyl)-N-[5-(thio-morpholine-4-car-bonyl)-thiazol-2-yl]-benz-amide]"

row,Compound,IC50 [nM]
1,"CCOC(=O)c1csc(N(C(=O)c2ccc(Cl)cc2Cl)c2ccc(OC)c(OC)c2)n1 [Example 2, 2-[(2,4-Dichloro-benzoyl)-(3,4-dimethoxy-phenyl)-amino]-thiazole-4-carboxylic acid ethyl ester]",510
2,"CCCCCN(C)C(=O)c1csc(N(C(=O)c2ccc(Cl)cc2Cl)c2ccc(Cl)cc2)n1 [Example 27, 2-[(4-Chloro-phenyl)-(2,4-dichloro-benzoyl)-amino]-thiazole-4-carboxylic acid methyl-pentyl-amide]",520

# Test system: not given
# Assay: not given
# Conditions: 5, 10 and 20 mg daily; compared to placebo; cited from earlier work
row,Compound,body weight
1,Cc1c(C(=O)NN2CCCCC2)nn(-c2ccc(Cl)cc2Cl)c1-c1ccc(Cl)cc1 [SR 141716],significantly reduced body weight
